Experimental data taken from patent publication US12568969B2, “Pyridine compounds for controlling invertebrate pests” (FMC Corporation, priority 2020, dated 2026).

Columns and labels:
[1] = Vapor pressure estimated by GC/MS retention time correlation; format: physicochemical
Description: The procedures to obtain the vapor pressure values for both compounds are as follows: A solution of the test compound was prepared in acetonitrile at a concentration of 50 μg/mL and was then analyzed by gas chromatography/mass spectrometry (GC/MS). A linear correlation of retention times vs. known vapor pressure values of standard compounds is used to obtain an estimate of the vapor pressure of the test compounds by using interpolation. Detection and retention time of the subject compounds are confirmed by interpretation of the mass spectrum.

[2] = system: cotton melon aphid (Aphis gossypii (Glover)); experiment: whole plant or invertebrate; format: in vivo; settings: for Control Efficacy CMA: cotton melon aphid
Outline: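 Compounds were formulated in a solution of 10% acetone, […] and 300 ppm Activator 909 non-ionic surfactant and sprayed as 1 mL through an atomizer nozzle 1.27 cm (0.5 inches) above each test unit, with three replicates. Units were pre-infested with 30-40 aphids on leaf pieces via the cut-leaf method, soil covered with sand, then kept 6 days at 19° C. and 70% relative humidity before visual mortality scoring.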

[3] = system: potato leafhopper (Empoasca fabae (Harris)); experiment: Test C: control of potato leafhopper on Soleil bean plant, spray; format: in vivo; settings: for Control Efficacy PLH: potato leafhopper
Description: Test compounds were formulated using a solution containing 10% acetone, […] and 300 ppm Activator 909 non-ionic surfactant (Loveland Products, Loveland, Colorado, USA). The formulated compounds were applied in 1 mL of liquid through an atomizer nozzle positioned 1.27 cm (0.5 inches) above the top of each test unit. Test compounds were sprayed at the rates indicated, and each test was replicated three times.
For evaluating control of potato leafhopper (Empoasca fabae (Harris)) through contact and/or systemic means, the test unit consisted of a small open container with a 5-6-day-old Soleil bean plant (primary leaves emerged) inside. White sand was added to the top of the soil, and one of the primary leaves was excised prior to application of the test compound.
[…] After spraying of the formulated test compound, the test units were allowed to dry for 1 hour before they were post-infested with 5 potato leafhoppers (18-to-21-day-old adults). A black, screened cap was placed on the top of the test unit, and the test units were held for 6 days in a growth chamber at 20° C. and 70% relative humidity. Each test unit was then visually assessed for insect mortality.

[4] = system: green peach aphid (Myzus persicae (Sulzer)); experiment: Test D: control of green peach aphid on radish plant, spray; format: in vivo; settings: for Control Efficacy GPA: green peach aphid
Outline: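 Radish plants (12-15 days old) pre-infested with 30-40 aphids, sprayed with compound in 10% acetone/water with 300 ppm non-ionic surfactant at 250 and/or 50 ppm, three replicates. Held 6 days at 19-21 °C, 50-70% relative humidity, then mortality scored visually.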

[5] = system: corn planthopper (Peregrinus maidis (Ashmead)); experiment: whole plant or invertebrate; format: in vivo; settings: for Control Efficacy CPH: corn planthopper
Outline: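 Corn plants 3-4 days old were sprayed at 250, 50 and/or 10 ppm in 10% acetone with 300 ppm non-ionic surfactant, three replicates, contact and/or systemic exposure. After 1 h drying, ~15-20 nymphs (18-to-21-day-old) were added; mortality assessed visually after 6 days at 22-24° C, 50-70% RH.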

Fc1cncc(-n2nccn2)c1C(F)c1ccc(OC(F)(F)F)cc1 (stereo not drawn) [Compound 8]
Vapor Pressure [1]: 6.04E−06 | vapor pressure relative to compound A ([1]; compared with compound A): ~1000 times lower | mortality at 50 ppm ([2]; Aphis gossypii, 144 h, sprayed at 50 ppm, 6 days): ≥ 80% | mortality at 250 ppm ([2]; Aphis gossypii, 144 h, sprayed at 250 ppm, 6 days): ≥ 80% | control efficacy compared with compound A ([2]; CMA, down to 2 ppm): significantly higher control efficacy than compound A | Control Efficacy CMA ([2]; sprayed at 2 ppm): 79% | Control Efficacy CMA ([2]; sprayed at 10 ppm): 88% | Control Efficacy CMA ([2]; sprayed at 50 ppm): 96% | Control Efficacy CMA ([2]; sprayed at 250 ppm): 80% | mortality at 250 ppm ([3]; Empoasca fabae, 144 h, sprayed at 250 ppm, 6 days): ≥ 80% | control efficacy compared with compound A ([3]; PLH, at 250 ppm): significantly higher control efficacy than compound A | Control Efficacy PLH ([3]; sprayed at 50 ppm): 0 | Control Efficacy PLH ([3]; sprayed at 250 ppm): 93 | control efficacy compared with compound A ([4]; GPA, down to 2 ppm): significantly higher control efficacy than compound A | mortality at 50 ppm ([4]; Myzus persicae, 144 h, sprayed at 50 ppm, 6 days): ≥ 80% | mortality at 250 ppm ([4]; Myzus persicae, 144 h, sprayed at 250 ppm, 6 days): ≥ 80% | Control Efficacy GPA ([4]; sprayed at 2 ppm): 100% | Control Efficacy GPA ([4]; sprayed at 10 ppm): 94% | Control Efficacy GPA ([4]; sprayed at 50 ppm): 100% | Control Efficacy GPA ([4]; sprayed at 250 ppm): 100% | control efficacy compared with compound A ([5]; CPH, down to 2 ppm): significantly higher control efficacy than compound A | mortality at 50 ppm ([5]; Peregrinus maidis, 144 h, sprayed at 50 ppm, 6 days): ≥ 80% | mortality at 250 ppm ([5]; Peregrinus maidis, 144 h, sprayed at 250 ppm, 6 days): ≥ 80% | Control Efficacy CPH ([5]; sprayed at 2 ppm): 89% | Control Efficacy CPH ([5]; sprayed at 10 ppm): 95% | Control Efficacy CPH ([5]; sprayed at 50 ppm): 100% | Control Efficacy CPH ([5]; sprayed at 250 ppm): 100%
